Residues, ends and D or L forms follow the SMILES beside them. No end group written: not given here.
Experiments:
[1] = Peptide-lipid overlay assay; assay type: binding; conditions: 2 μM peptide, 1 h
Description: Membrane lipid strips (Echelon Biosciences, P-6002) were incubated for 1 h in blocking solution (3 % BSA in TBS-Tween 0.1 %) with gentle agitation followed by four 8-min washes in TBS-Tween. Then, strips were incubated with 2 μM of NCR169C17–38 in blocking solution for 1 h. Not bound peptide was washed off by four 8-min washes in TBS-Tween. The bound StrepII-tagged peptide was then detected on the strips using the same procedure described for the dot blot, except that chemiluminescence was visualized with an iBright™ FL1500 Imaging System (Invitrogen).
As shown above, NCR169C17–38 causes rapid damage to bacterial membranes. Since membrane structure is largely determined by its lipid composition, we next investigated the ability of NCR169C17–38-StrepII to bind membrane lipids in vitro using a peptide-lipid overlay assay (Supplementary Fig. 3.A). NCR169C17–38-StrepII bound to several anionic lipids, including phosphoinositides, phosphatidic acid, phosphatidylserine, and cardiolipin - a major constituent of bacterial membranes.

[2] = tested on: E. coli; test: Antimicrobial test after heat stress or storage of the peptide; assay type: cell-based, Escherichia coli; conditions: then tested against E. coli, 3.1 µM = lowest dilution tested
Description: (B) NCR169C17-38-StrepII remains active against E. coli even at 3.1 µM after 20 minutes of treatment at 80 °C or incubation at room temperature for 24 hrs. Bacterial viability was assessed by plating 5 µL aliquots after treatment on LB agar. Only non-treated control cells could grow.

[3] = 25, 12.5, 6.3, 3.1 µM in PPB, overnight at room temperature or 80 °C for 20 min; StrepII detection
Description: For heat stability test serial dilutions of the NCR169C17–38-StrepII peptide were prepared in PPB at concentrations of 25, 12.5, 6.3, 3.1 µM, following the same protocol used in the antimicrobial assay. One set of samples was incubated overnight at 37 °C with shaking, another set was subjected to heat stress at 80 °C for 20 min, while one set was freshly prepared. Dot-blot analysis was performed by spotting 5 µl of each peptide solution onto a 0.22 µm nitrocellulose membrane (Bio-Rad). Detection of the StrepII-tagged peptide was carried out using the Precision Protein StrepTactin-HRP conjugate (Bio-Rad), following the manufacturer’s recommended protocol. Signal development was achieved using the Clarity Western ECL Substrate (Bio-Rad), with the membrane incubated for 5 min at room temperature, followed by exposure to Fuji Medical X-ray film for visualization.
Peptide dilutions (25, 12.5, 6.3, and 3.1 µM) in PPB were either incubated overnight at room temperature (RT) or heated at 80 °C for 20 min.

[4] = tested on: Enterococcus faecalis (ATCC 29212); test: Minimal bactericidal concentration (MBC) assay; assay type: cell-based
Text: (§1) The Gram-positive strains Enterococcus faecalis (ATCC 29212), Staphylococcus aureus (HNCMO112011), and Listeria monocytogenes (ATCC 19111), and the Gram-negative strains Pseudomonas aeruginosa (ATCC 27853), Escherichia coli (ATCC 8739), Salmonella enterica (ATCC 13076), Klebsiella pneumoniae (NCTC 13440), and Acinetobacter baumannii (ATCC 17978) were obtained from ATCC (United States) and NCTC (National Collection of Type Cultures – England).
(§2) Minimal bactericidal concentrations (MBC) of peptides and reference antibiotics were determined in 20 mM potassium phosphate buffer (PPB, pH 7.4) and Mueller–Hinton broth (MHB) as described by ([Jenei et al., 2020]). Briefly, bacterial cultures were grown to mid-log phase, washed, adjusted to OD₆₀₀ = 0.1 (∼10⁷ CFU/mL), added 10 μl of it into 100 μl mixture and incubated in 96-well plates with 2-fold serial dilutions of peptides or antibiotics. After incubation at 37 °C with shaking, bacterial viability was assessed by plating 5 μL aliquots on LB agar. MBC was defined as the lowest concentration yielding no colony growth. Experiments were done at least in three biological replicates.
(§3) NCR169, its oxidized form (NCR169ox), and its variant in which the four cysteines were replaced with serines (NCR169-C9,15,28,33/S) (Table 1.A) were chemically synthesized with C-terminal amidation. These peptides were tested for antimicrobial activity against a panel of ESKAPE pathogens - Enterococcus faecalis, Staphylococcus aureus, Klebsiella pneumoniae, Acinetobacter baumannii, Pseudomonas aeruginosa, E. coli - as well as Listeria monocytogenes and Salmonella enterica. Peptides were applied to 10^6 log-phase bacterial cultures in a two-fold dilution series (25 - 0.1 µM) in potassium phosphate buffer (PPB) at pH 7.4. After three hours of incubation, 5 µl of each treatment was plated on LB agar and incubated overnight at 37 °C to assess bacterial survival. Minimal bactericidal concentrations (MBCs), defined as the lowest concentration eliminating bacterial growth, are presented in Table 1B.

[5] = assay type: physicochemical; conditions: pH 7.4
[6] = tested on: Klebsiella pneumoniae (NCTC 13440); test: Minimal bactericidal concentration (MBC) assay; assay type: cell-based; conditions: short derivatives; 20 mM PPB at pH 7.4
Text: as §1, §2, §3

[7] = tested on: Listeria monocytogenes (ATCC 19111); test: Minimal bactericidal concentration (MBC) assay; assay type: cell-based; conditions: short derivatives; 20 mM PPB at pH 7.4
Text: as §1, §2, §3

[8] = tested on: Pseudomonas aeruginosa (ATCC 27853); test: Minimal bactericidal concentration (MBC) assay; assay type: cell-based; conditions: short derivatives; 20 mM PPB at pH 7.4
Text: as §1, §2, §3

[9] = tested on: Salmonella enterica (ATCC 13076); test: Minimal bactericidal concentration (MBC) assay; assay type: cell-based; conditions: short derivatives; 20 mM PPB at pH 7.4
Text: as §1, §2, §3

[10] = tested on: Acinetobacter baumannii (ATCC 17978); assay type: cell-based; conditions: short derivatives; 20 mM PPB at pH 7.4
Text: as §1, §2, §3

[11] = tested on: Staphylococcus aureus (HNCMO112011); assay type: cell-based; conditions: for MBC S. a.: short derivatives, 20 mM PPB at pH 7.4
Text: as §1, §2, §3

[12] = tested on: Escherichia coli (ATCC 8739); assay type: cell-based; conditions: ATCC 8739, 3 h
Text: as §1
as §2, with “Experiments were done at least in three biological replicates.” left out
Three biological replicates were treated at OD600 = 0.2 with a final concentration of 1.6 µM NCR169C17–38 peptide for 20 min, while the control samples were treated with the same amount of water for 20 min. […] Quality and quantity was detected using 2200 TapeStation (Agilent) and Qubit RNA BR Assay […]

[13] = short derivatives, 20 mM PPB at pH 7.4

CC[C@H](C)[C@H](NC(=O)[C@H](CCCCN)NC(=O)[C@H](Cc1ccccc1)NC(=O)[C@H](CC(C)C)NC(=O)[C@@H]1CCCN1C(=O)[C@H](CCCCN)NC(=O)[C@H](CCCCN)NC(=O)[C@H](CO)NC(=O)[C@@H](N)CCCCN)C(=O)N[C@@H](Cc1c[nH]c2ccccc12)C(=O)N[C@@H](CCCCN)C(=O)N[C@@H](CS)C(=O)N[C@H](C(=O)N[C@@H](CCC(=O)O)C(=O)N[C@@H](CC(N)=O)C(=O)N[C@H](C(=O)N[C@@H](CS)C(=O)N[C@H](C(=O)N[C@@H](CC(C)C)C(=O)N[C@@H](Cc1c[nH]c2ccccc12)C(=O)N[C@@H](Cc1ccc(O)cc1)C(=O)N[C@@H](CCCCN)C(=O)N[C@@H](Cc1c[nH]c2ccccc12)C(=O)N[C@@H](CO)C(=O)N[C@@H](Cc1c[nH]cn1)C(=O)N1CCC[C@H]1C(=O)N[C@@H](CCC(N)=O)C(=O)N[C@@H](Cc1ccccc1)C(=O)N[C@@H](CCC(=O)O)C(=O)N[C@@H](CCCCN)C(N)=O)C(C)C)C(C)C)C(C)C [NCR169C17–38-StrepII] (H-KSKKPLFKIWKCVENVCVLWYKWSHPQFEK-NH2; N-terminus assumed)
binding to phosphatidylglycerol (PG) on lipid strip [1]: did not bind
binding to anionic lipids on lipid strip ([1]; phosphoinositides, phosphatidic acid, phosphatidylserine, cardiolipin): bound
lowest concentration still bactericidal after heat stress ([2]; peptide in PPB heated 20 minutes at 80 °C): ≤ 3.1 µM
lowest concentration still bactericidal after storage ([2]; peptide in PPB incubated at room temperature for 24 hrs (overnight)): ≤ 3.1 µM
peptide stability by dot blot [3]: confirmed its stability

EDIGHIKYCGIVDDCYKSKKPLFKIWKCVENVCVLWYK (disulfide) (disulfide (positions not given here); also: disulfide pairing not given here) [NCR169ox, oxidized form of NCR169]
MBC E. f. ([4]; PPB pH 5.8, 3 h treatment, plated on LB agar): - (lack of bactericidal activity up to 25 µM)
MBC E. f. ([4]; PPB pH 7.4, 3 h treatment, 10^6 log-phase bacteria, two-fold dilutions 25-0.1 µM, plated on LB agar, * = best MBC value measured, more than two fold dilution differences in replicates): - (lack of bactericidal activity up to 25 µM)
solubility / visible turbidity upon peptide addition [5]: no visible turbidity

KCVENVCVLWYK [NCR169_27–38, shorter C-terminal fragment of NCR169C17–38]
MBC E. f. [4, 13]: - (lack of bactericidal activity up to 25 µM)
MBC K. p. [6]: - (lack of bactericidal activity up to 25 µM)
MBC L. m. [7]: - (lack of bactericidal activity up to 25 µM)
MBC P. a. [8]: - (lack of bactericidal activity up to 25 µM)
MBC S. e. [9]: - (lack of bactericidal activity up to 25 µM)
MBC A. b. [10]: - (lack of bactericidal activity up to 25 µM)
MBC S. a. [11]: - (lack of bactericidal activity up to 25 µM)

PLFKIWKCVENVCVLWYK [NCR169_21–38, shorter C-terminal fragment of NCR169C17–38]
MBC E. f. [4, 13]: - (lack of bactericidal activity up to 25 µM)
MBC K. p. [6]: - (lack of bactericidal activity up to 25 µM)
MBC L. m. [7]: - (lack of bactericidal activity up to 25 µM)
MBC P. a. [8]: - (lack of bactericidal activity up to 25 µM)
MBC S. e. [9]: - (lack of bactericidal activity up to 25 µM)
MBC S. a. [11]: - (lack of bactericidal activity up to 25 µM)

YKSKKPLFKIWK-NH2 [NCR169_16–27]
MBC Sa ([11]; HNCMO112011, 3 h): 25 µM
MBC Ec [12]: 6.3 µM

— article PMC12811501, “A plant-derived antimicrobial peptide with multiple mechanisms of action exhibiting antibacterial and antibiofilm activities comparable to or superior to polymyxin B” (Current Research in Microbial Sciences, 2025)
